Assay results from ChEMBL document CHEMBL1201862, “PubChem BioAssay data set” (2004).
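Five concentrations, 48 hours, 96-well plates. GI50 is the concentration that inhibits growth by half.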 Calls of active or inactive are those of the source. No stated cut-off is given here; in the data, active = GI50 up to about 1.1 µM and inactive = higher.

Key:
Experiment in all cases: NCI anticancer screen, dose series, 48 h
BT-549 = test system: BT-549
CAKI-1 = test system: CAKI-1
COLO 205 = test system: COLO 205
DU-145 = test system: DU-145
EKVX = test system: EKVX
HCC 2998 = test system: HCC 2998
HOP-62 = test system: HOP-62
Hs-578T = test system: Hs-578T
KM12 = test system: KM12
LOX IMVI = test system: LOX IMVI
MDA-MB-435 = test system: MDA-MB-435
NCI-H226 = test system: NCI-H226
OVCAR-8 = test system: OVCAR-8
PC-3 = test system: PC-3
SF-295 = test system: SF-295
SF-539 = test system: SF-539
SK-OV-3 = test system: SK-OV-3
SW-620 = test system: SW-620
U-251 = test system: U-251
HL-60 = test system: HL-60

| Structure (SMILES) | GI50 (BT-549) | GI50 (CAKI-1) | GI50 (COLO 205) | GI50 (DU-145) | GI50 (EKVX) | GI50 (HCC 2998) | GI50 (HOP-62) | GI50 (Hs-578T) | GI50 (KM12) | GI50 (LOX IMVI) | GI50 (MDA-MB-435) | GI50 (NCI-H226) | GI50 (OVCAR-8) | GI50 (PC-3) | GI50 (SF-295) | GI50 (SF-539) | GI50 (SK-OV-3) | GI50 (SW-620) | GI50 (U-251) | GI50 (HL-60) |
| --- | --- | --- | --- | --- | --- | --- | --- | --- | --- | --- | --- | --- | --- | --- | --- | --- | --- | --- | --- | --- |
| O=C1CC(c2cccc(F)c2)Nc2cc3c(cc21)OCO3 (stereo not drawn) | > 10 µM (inactive) | 0.051 µM (active) | 0.0292 µM (active) | 0.0385 µM (active) | < 0.01 µM (active) | 0.0593 µM (active) | 7.38 µM (inactive) | < 0.01 µM (active) | 0.0463 µM (active) | 0.0631 µM (active) | 0.0136 µM (active) | 0.027 µM (active) | 0.0568 µM (active) | 0.0301 µM (active) | 0.042 µM (active) | 0.0293 µM (active) | 0.0955 µM (active) | 0.0393 µM (active) | 0.0344 µM (active) |  |
| O=C(Nc1ccccc1F)c1cc2ccc(O)cc2o/c1=N\c1cccc(C(F)(F)F)c1 | 2.67 µM (inactive) | 3.79 µM (inactive) | 18.6 µM (inactive) | 4.04 µM (inactive) | 3.76 µM (inactive) | 8.2 µM (inactive) | 7.91 µM (inactive) | 1.94 µM (inactive) | 3.71 µM (inactive) | 2.69 µM (inactive) | 3.51 µM (inactive) |  | 2.18 µM (inactive) | 3.76 µM (inactive) | 4.99 µM (inactive) | 3.9 µM (inactive) | 3.78 µM (inactive) | 3.08 µM (inactive) | 3.73 µM (inactive) | 1.66 µM (inactive) |
| COC(=O)[C@H](CCSC)NC(=O)c1ccc(CNC(=O)/C=C/c2cccc(Oc3ccccc3)c2)cc1 | > 69.7 µM (inactive) | > 46.5 µM (inactive) | 21.9 µM (inactive) | > 100 µM (inactive) | 67.3 µM (inactive) | 28.5 µM (inactive) | > 100 µM (inactive) | 59.2 µM (inactive) | > 100 µM (inactive) | 51.8 µM (inactive) | 14.3 µM (inactive) | > 23.8 µM (inactive) | > 100 µM (inactive) | > 75 µM (inactive) | > 78.5 µM (inactive) | > 74.3 µM (inactive) | > 100 µM (inactive) | 77.4 µM (inactive) | > 100 µM (inactive) |  |
| C[C@@]1(O)C[C@@H](N2C(=O)O[C@@H](c3ccccc3)[C@H]2c2ccccc2)[C@@H]1COCc1ccccc1 | 17.5 µM (inactive) | 22 µM (inactive) | 15 µM (inactive) | 28.5 µM (inactive) | 20.5 µM (inactive) | 19.8 µM (inactive) | 29.2 µM (inactive) | 21.9 µM (inactive) | 19.6 µM (inactive) | 15.9 µM (inactive) | 28.4 µM (inactive) | 20.2 µM (inactive) | 17.8 µM (inactive) | 15.9 µM (inactive) | 16.4 µM (inactive) | 20.8 µM (inactive) |  | 26 µM (inactive) | 14.6 µM (inactive) | 6.35 µM (inactive) |
| Nc1nc(CCl)nc(N2CCOCC2)n1 | 31.7 µM (inactive) | 16.5 µM (inactive) | 17.9 µM (inactive) | 38.4 µM (inactive) | 17.6 µM (inactive) | 17.7 µM (inactive) | 18.2 µM (inactive) | 38.1 µM (inactive) | 32.1 µM (inactive) |  | 29.2 µM (inactive) | 37.4 µM (inactive) | 34.8 µM (inactive) | 72.1 µM (inactive) | 29.8 µM (inactive) | 22.8 µM (inactive) | 45.6 µM (inactive) | 24.4 µM (inactive) | 22.4 µM (inactive) | 13.9 µM (inactive) |
| CCOC(=O)/C=C(/OCC)[C@@H]1C(C(=O)c2ccc(Cl)cc2)[C@H]1/C(=C\C(=O)OCC)OCC (stereo partly drawn) | > 100 µM (inactive) | > 100 µM (inactive) | 95.3 µM (inactive) | > 100 µM (inactive) | > 100 µM (inactive) |  | > 100 µM (inactive) | > 100 µM (inactive) | 56.9 µM (inactive) | > 100 µM (inactive) | > 100 µM (inactive) | > 100 µM (inactive) | > 100 µM (inactive) | > 30.5 µM (inactive) | > 33.8 µM (inactive) | > 100 µM (inactive) | > 100 µM (inactive) | > 100 µM (inactive) | > 100 µM (inactive) | 5.87 µM (inactive) |
| c1cc(-c2ccc(-c3ccc(-c4ccc(-c5ccncc5)o4)cc3)o2)ccn1 | 15.7 µM (inactive) | 21.4 µM (inactive) | 16.1 µM (inactive) | 15 µM (inactive) | 22.4 µM (inactive) | 18.2 µM (inactive) | 22.1 µM (inactive) | 64.1 µM (inactive) | 15.3 µM (inactive) | 21.4 µM (inactive) | 15.5 µM (inactive) | 27.4 µM (inactive) | 16.8 µM (inactive) | 18.7 µM (inactive) | 15 µM (inactive) |  | 21.1 µM (inactive) | 28.2 µM (inactive) | 17.5 µM (inactive) | 18.5 µM (inactive) |
| NC1(C(=O)O)CCCC1C(=O)O (stereo not drawn) | > 100 µM (inactive) | > 100 µM (inactive) | > 100 µM (inactive) | > 100 µM (inactive) | > 100 µM (inactive) |  | > 100 µM (inactive) | > 100 µM (inactive) | > 100 µM (inactive) | > 100 µM (inactive) | > 100 µM (inactive) |  | > 100 µM (inactive) | > 100 µM (inactive) | > 100 µM (inactive) | > 100 µM (inactive) | > 100 µM (inactive) | > 100 µM (inactive) | > 100 µM (inactive) | > 100 µM (inactive) |
| C=C1CC[C@@]2(OC1)OC1C[C@H]3[C@@H]4CC=C5C[C@@H](O)CC(OC6OCC(OC(=O)[C@@H](O)[C@@H](C)CC)C(OC(C)=O)C6OC6OC(C)C(O)C(O)C6O)[C@]5(C)[C@H]4CC[C@]3(C)C1[C@@H]2C (stereo partly drawn) | 3.76 µM (inactive) | 2.65 µM (inactive) | 2.11 µM (inactive) | 2.07 µM (inactive) | 2.34 µM (inactive) | 1.6 µM (inactive) |  | 3.4 µM (inactive) | 2.14 µM (inactive) | 1.87 µM (inactive) | 1.76 µM (inactive) | 2.64 µM (inactive) | 2.16 µM (inactive) | 1.67 µM (inactive) | 1.75 µM (inactive) | 2.31 µM (inactive) | 1.83 µM (inactive) | 2.1 µM (inactive) | 1.75 µM (inactive) | 1.81 µM (inactive) |
| CCCCCCCCOC(=O)C12Oc3ccc(-c4ccc5c(c4O)C(=O)C4=C(O)CC(C)C(O)C4(C(=O)OCCCCCCCC)O5)c(O)c3C(=O)C1=C(O)CC(C)C2O (stereo not drawn) | 9.59 µM (inactive) | 25.2 µM (inactive) | 20.9 µM (inactive) | 34.4 µM (inactive) | 28.5 µM (inactive) | 28.9 µM (inactive) |  | 11.6 µM (inactive) | 10.8 µM (inactive) | 25.5 µM (inactive) | 9.86 µM (inactive) | 33.7 µM (inactive) | 9.46 µM (inactive) | 23.2 µM (inactive) | 8.41 µM (inactive) | 4.21 µM (inactive) | 18.7 µM (inactive) | 6.85 µM (inactive) | 4.06 µM (inactive) | 2.92 µM (inactive) |
| COc1cc2c(cc1OC)C1=Cc3ccc(OC)c(OC)c3C(C#N)N1CC2 (stereo not drawn) | 14.6 µM (inactive) | > 100 µM (inactive) | 18.2 µM (inactive) | 39.7 µM (inactive) | 96.8 µM (inactive) | 18.5 µM (inactive) | 42.4 µM (inactive) | 35.8 µM (inactive) | 21.1 µM (inactive) |  | 25.9 µM (inactive) | > 100 µM (inactive) |  | 32.4 µM (inactive) | 37.1 µM (inactive) | 13.8 µM (inactive) | > 100 µM (inactive) | 47.6 µM (inactive) | 21.6 µM (inactive) | 39 µM (inactive) |
| CCOC(=O)NN(C(=O)OCC)C(C(=O)C1=CCCCC1)N(NC(=O)OCC)C(=O)OCC | > 100 µM (inactive) | > 100 µM (inactive) | > 100 µM (inactive) | > 100 µM (inactive) | > 100 µM (inactive) | > 100 µM (inactive) | > 100 µM (inactive) | > 100 µM (inactive) | > 100 µM (inactive) | > 100 µM (inactive) | > 100 µM (inactive) | > 100 µM (inactive) | > 100 µM (inactive) | > 100 µM (inactive) | > 100 µM (inactive) | 9.57 µM (inactive) | > 100 µM (inactive) | > 100 µM (inactive) | > 100 µM (inactive) |  |
| COc1cc2c(cc1C[C@H]1[C@@H]3C[C@H]4c5c(c6ccccc6n5C)C[C@@H]([C@@H]3CO[C@]1(C)OC(C)=O)N4C)c1c(n2C)C2C[C@H]3C(C(C)=O)=COC[C@H]3[C@H](C1)N2C | 3.29 µM (inactive) | 2.23 µM (inactive) | 3.08 µM (inactive) | 6.38 µM (inactive) | 0.403 µM (active) | 0.0102 µM (active) | 1.56 µM (inactive) | 2.8 µM (inactive) | 2 µM (inactive) | > 25 µM (inactive) | > 25 µM (inactive) | 5.46 µM (inactive) | 3.66 µM (inactive) | 0.462 µM (active) | 4.67 µM (inactive) | 2.84 µM (inactive) | 11.1 µM (inactive) | 4.13 µM (inactive) | 5.57 µM (inactive) |  |
| O=[N+]([O-])c1ccc2c(c1)n1c(N3CCCC3)[n+]3ccccc3c1c1c3ccccn3c(N3CCCC3)[n+]21.[O-][Cl+3]([O-])([O-])[O-].[O-][Cl+3]([O-])([O-])[O-] | > 100 µM (inactive) | > 100 µM (inactive) | 54 µM (inactive) | > 100 µM (inactive) | > 100 µM (inactive) | > 100 µM (inactive) |  | 83.2 µM (inactive) | > 100 µM (inactive) | > 100 µM (inactive) | > 100 µM (inactive) | 44.3 µM (inactive) | > 100 µM (inactive) | > 100 µM (inactive) | 61.4 µM (inactive) | 39.5 µM (inactive) |  | 65.9 µM (inactive) | 36.7 µM (inactive) | 32 µM (inactive) |
